Data reported in PMC9257893 (The Onderstepoort Journal of Veterinary Research, 2022).
Where “and” joins values, the source holds several entries; their conditions need not be identical. Equal values may be shown once. Read-outs that look alike come from different tables or passages of the source.

How the values were obtained:
[1] = Diclofenac plasma pharmacokinetics in chickens after IV dosing (HPLC, non-compartmental); conditions: for AUC(0-inf): AUCinf; for AUC(0-t): AUClast
Protocol: Birds still alive after 15 days were terminated by sedation and carbon dioxide asphyxiation.
Scheduled and unscheduled deaths were submitted to the University of Pretoria Paraclinical Department, section of veterinary pathology, for full gross and histological evaluation. Where needed, samples were collected in 10% buffered formalin, sectioned and stained via haematoxylin & eosin (H&E) technique and subjected to histopathologic examination.
Samples were analysed at the University of Pretoria, Veterinary, Paraclinical Department, toxicology and pharmacology laboratory. […] In short, 200 μL of plasma was placed in a 2-mL tube, followed sequentially by 400 μL of diethyl ether and 400 μL of potassium dihydrogen phosphate (0.3 M and pH 3.5). […] The separated organic phase was dried under nitrogen flow at 50 °C until dry.
For analysis, 30 μL was injected at […], and detection at 275 nm.
Concentration-time data generated following HPLC analysis was dose equalised to 1 mg/kg and evaluated by non-compartmental modelling (Kinetica 5.1, Thermo Scientific). The pharmacokinetic parameters maximum plasma concentration (Cmax) and time to maximum plasma concentration (Tmax) were read off the curve.
Area under the plasma curve extrapolated to infinity was calculated as: • AUCinf=AUClast+AUCextra, [Eqn 3] where AUCextra=Clast/β,Clast
is the last measured concentration and β is the terminal elimination portion of the curve gradient, on a natural logarithmic scale.
The half-life of elimination (T1/2) was calculated as: • T1/2=Ln 2/β. [Eqn 4]
Whole plasma clearance (Cl) was calculated as: • Cl=Dose/AUClast. [Eqn 5]
Volume of distribution (Vd) was calculated as: • Vd=Dose/CP0, [Eqn 6] where CP0 was the calculated concentration at time 0.
The mean residence time (MRT) was calculated as: • MRT=Dose Cp0/β. [Eqn 7]

[2] = Gyps vultures; cited from earlier work
[3] = pigeon; cited from earlier work
[4] = set-up: method as in Naidoo et al. [2007]; conditions: Cape Griffon Vulture; ref Naidoo et al. [2007]; cited from earlier work
[5] = set-up: method as in Naidoo et al. [2007]; conditions: African White-backed Vulture; ref Naidoo et al. [2007]; cited from earlier work
[6] = in vivo, iv, 1 mg/kg, control group (diclofenac IV alone), birds alive, GM, dose corrected to 1 mg/kg
[7] = in vivo, iv, 1 mg/kg, control group (diclofenac IV alone), birds dead, GM, dose corrected to 1 mg/kg
[8] = in vivo, iv, test group (fluconazole + diclofenac IV), birds alive, GM, dose corrected to 1 mg/kg
[9] = test group (fluconazole + diclofenac IV), birds alive, GM, dose corrected to 1 mg/kg
[10] = test group (fluconazole + diclofenac IV), birds dead, GM, dose corrected to 1 mg/kg

Question: What does the source list for `O=C(O)Cc1ccccc1Nc1c(Cl)cccc1Cl` [diclofenac, diclofenac sodium]?
Answer: Cmax ([1]; chicken (Gallus gallus domesticus), in vivo, iv, mean Cmax, mean value stated in text, chickens, IV diclofenac): 510 ng/mL; Tmax ([1]; chicken (Gallus gallus domesticus), in vivo, iv, mean Tmax, mean value stated in text, chickens, IV diclofenac): 0.38 h; Lz (terminal elimination phase rate constant) ([1]; control group (diclofenac IV alone), birds alive, GM): 0.88 h⁻¹; AUMClast ([1]; control group (diclofenac IV alone), birds alive, GM, dose corrected to 1 mg/kg): 0.35 μg/mL*(h)^2; Lz (terminal elimination phase rate constant) ([1]; control group (diclofenac IV alone), birds dead, GM): 0.34 h⁻¹; AUMClast ([1]; control group (diclofenac IV alone), birds dead, GM, dose corrected to 1 mg/kg): 0.27 μg/mL*(h)^2; T1/2 of individual birds ([1]; control group birds receiving the two highest doses): 7.01 h and 2.75 h; AUC(0-inf) [1, 6]: 570 ng·h/mL; AUC(0-inf) [1, 7]: 760 ng·h/mL; AUC(0-t) [1, 6]: 460 ng·h/mL; AUC(0-t) [1, 7]: 310 ng·h/mL; Cmax ([1]; in vivo, iv, 1 mg/kg, Cmax, control group (diclofenac IV alone), birds alive, GM, dose corrected to 1 mg/kg): 520 ng/mL; Cmax ([1]; in vivo, iv, 1 mg/kg, Cmax, control group (diclofenac IV alone), birds dead, GM, dose corrected to 1 mg/kg): 240 ng/mL; AUC(0-inf) [1, 8]: 550 ng·h/mL; AUC(0-inf) ([1]; in vivo, iv, test group (fluconazole + diclofenac IV), birds dead, GM, dose corrected to 1 mg/kg): 1130 ng·h/mL; AUC(0-t) ([1]; in vivo, iv, geometric mean, control group, all birds): 400 ng·h/mL; AUC(0-t) ([1]; in vivo, iv, geometric mean, test group (CYP inhibitor), all birds): 500 ng·h/mL; AUC(0-t) [1, 8]: 420 ng·h/mL; clearance ([1]; in vivo, iv, Cl, control group (diclofenac IV alone), birds alive, GM): 29 mL/min/kg; clearance ([1]; in vivo, iv, Cl, control group (diclofenac IV alone), birds dead, GM): 22 mL/min/kg; clearance ([1]; in vivo, iv, Cl, test group (fluconazole + diclofenac IV), birds alive, GM): 30.5 mL/min/kg; clearance ([1]; in vivo, iv, Cl, test group (fluconazole + diclofenac IV), birds dead, GM): 14.7 mL/min/kg; Cmax ([1]; in vivo, iv, Cmax, geometric mean, control group, all birds): 410 ng/mL; Cmax ([1]; in vivo, iv, Cmax, geometric mean, test group (CYP inhibitor), all birds): 610 ng/mL; Cmax ([1]; in vivo, iv, Cmax, test group (fluconazole + diclofenac IV), birds dead, GM, dose corrected to 1 mg/kg): 1240 ng/mL; MRT ([1]; in vivo, iv, control group (diclofenac IV alone), birds alive, GM): 1.17 h; MRT ([1]; in vivo, iv, control group (diclofenac IV alone), birds dead, GM): 3.14 h; MRT ([1]; in vivo, iv, test group (fluconazole + diclofenac IV), birds alive, GM): 1.34 h; MRT ([1]; in vivo, iv, test group (fluconazole + diclofenac IV), birds dead, GM): 1.33 h; half-life ([1]; in vivo, iv, T1/2, control group (diclofenac IV alone), birds alive, GM): 0.79 h; half-life ([1]; in vivo, iv, T1/2, test group (fluconazole + diclofenac IV), birds alive, GM): 0.85 h; half-life ([1]; in vivo, iv, T1/2, test group (fluconazole + diclofenac IV), birds dead, GM): 0.96 h; Tmax ([1]; in vivo, iv, Tmax, control group (diclofenac IV alone), birds alive, GM): 0.4 h; Tmax ([1]; in vivo, iv, Tmax, control group (diclofenac IV alone), birds dead, GM): 0.4 h; Tmax ([1]; in vivo, iv, Tmax, test group (fluconazole + diclofenac IV), birds alive, GM): 0.35 h; Tmax ([1]; in vivo, iv, Tmax, test group (fluconazole + diclofenac IV), birds dead, GM): 0.25 h; Vd ([1]; in vivo, iv, Vss, control group (diclofenac IV alone), birds alive, GM): 2.04 L/kg; Vd ([1]; in vivo, iv, Vss, control group (diclofenac IV alone), birds dead, GM): 4.16 L/kg; Vd ([1]; in vivo, iv, Vss, test group (fluconazole + diclofenac IV), birds alive, GM): 2.44 L/kg; Vd ([1]; in vivo, iv, Vss, test group (fluconazole + diclofenac IV), birds dead, GM): 1.17 L/kg; Vd ([1]; in vivo, iv, Vz, control group (diclofenac IV alone), birds alive, GM): 1.98 L/kg; Vd ([1]; in vivo, iv, Vz, control group (diclofenac IV alone), birds dead, GM): 3.88 L/kg; Vd ([1]; in vivo, iv, Vz, test group (fluconazole + diclofenac IV), birds alive, GM): 2.24 L/kg; Vd ([1]; in vivo, iv, Vz, test group (fluconazole + diclofenac IV), birds dead, GM): 1.23 L/kg; clearance ([1]; in vivo, iv, clearance, geometric mean, control group, all birds): 26.5 mL/min/kg; clearance ([1]; in vivo, iv, clearance, geometric mean, test group (CYP inhibitor), all birds): 25.3 mL/min/kg; Lz (terminal elimination phase rate constant) ([1]; test group (fluconazole + diclofenac IV), birds alive, GM): 0.82 h⁻¹; AUMClast [1, 9]: 0.34 μg/mL*(h)^2; Cmax [1, 9]: 480 ng/mL; Lz (terminal elimination phase rate constant) ([1]; test group (fluconazole + diclofenac IV), birds dead, GM): 0.72 h⁻¹; AUClast [1, 10]: 870 ng·h/mL; AUMClast [1, 10]: 0.63 μg/mL*(h)^2; T1/2 [2]: > 7 h; T1/2 [3]: < 7 h; MRT [4]: 15.11 h; T1/2 [4]: 12.24 h; MRT [5]: 26.10 h; T1/2 [5]: 16.78 h
